Assay results: ChEMBL document CHEMBL1201862, “PubChem BioAssay data set” (2004)
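Growth conditions: 96-well plates. Treatment: test compound, 48 hours, 5 concentrations. Analysis: linear interpolation between bracketing concentrations; unreached endpoints set to highest concentration. At the GI50, growth is halved.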 Active and inactive are the calls of the source. No stated cut-off is given here; in the data, active = GI50 up to about 1.1 µM and inactive = higher.

Tests used:
Assay in all cases: NCI-60 cell line screen, 48 h
786-0 = tested on: 786-0
A498 = tested on: A498
A549 = tested on: A549
ACHN = tested on: ACHN
BT-549 = tested on: BT-549
CAKI-1 = tested on: CAKI-1
CCRF-CEM = tested on: CCRF-CEM
COLO 205 = tested on: COLO 205
DU-145 = tested on: DU-145
EKVX = tested on: EKVX
HCC 2998 = tested on: HCC 2998
HCT-116 = tested on: HCT-116
HCT-15 = tested on: HCT-15
HL-60 = tested on: HL-60
HOP-62 = tested on: HOP-62
HOP-92 = tested on: HOP-92
HT-29 = tested on: HT-29
Hs-578T = tested on: Hs-578T
IGROV-1 = tested on: IGROV-1
K562 = tested on: K562
KM12 = tested on: KM12
LOX IMVI = tested on: LOX IMVI
M14 = tested on: M14
MCF7 = tested on: MCF7
MDA-MB-231 = tested on: MDA-MB-231
MDA-MB-435 = tested on: MDA-MB-435
MOLT-4 = tested on: MOLT-4
Malme-3M = tested on: Malme-3M
NCI-H226 = tested on: NCI-H226
NCI-H23 = tested on: NCI-H23
NCI-H460 = tested on: NCI-H460
NCI-H522 = tested on: NCI-H522
NCI/ADR-RES = tested on: NCI/ADR-RES
OVCAR-3 = tested on: OVCAR-3
OVCAR-4 = tested on: OVCAR-4
OVCAR-5 = tested on: OVCAR-5
OVCAR-8 = tested on: OVCAR-8
PC-3 = tested on: PC-3
RPMI-8226 = tested on: RPMI-8226
RXF 393 = tested on: RXF 393
SF-268 = tested on: SF-268
SF-295 = tested on: SF-295
SF-539 = tested on: SF-539
SK-MEL-28 = tested on: SK-MEL-28
SK-MEL-2 = tested on: SK-MEL-2
SK-MEL-5 = tested on: SK-MEL-5
SK-OV-3 = tested on: SK-OV-3
SN12C = tested on: SN12C
SNB-19 = tested on: SNB-19
SR = tested on: SR
SW-620 = tested on: SW-620
T47D = tested on: T47D
TK-10 = tested on: TK-10
U-251 = tested on: U-251
UACC-257 = tested on: UACC-257
UO-31 = tested on: UO-31
SNB-75 = tested on: SNB-75
UACC-62 = tested on: UACC-62

Measured: GI50

ClC1(c2ccccc2)c2ccc(Br)cc2-c2cc(Br)ccc21
16 µM: HCT-15
inactive: 786-0 16.6 µM | A498 18.8 µM | A549 17.1 µM | ACHN 16.1 µM | BT-549 17.2 µM | CAKI-1 14.9 µM | CCRF-CEM 34.6 µM | COLO 205 17.7 µM | DU-145 22.6 µM | EKVX 17.9 µM | HCC 2998 19.7 µM | HCT-116 14.9 µM | HL-60 19.3 µM | HOP-62 19.3 µM | HOP-92 15.6 µM | HT-29 12.3 µM | Hs-578T 19.9 µM | IGROV-1 16.2 µM | K562 > 100 µM | KM12 19.4 µM | LOX IMVI 17.8 µM | M14 14.2 µM | MCF7 19 µM | MDA-MB-231 16.7 µM | MDA-MB-435 13.5 µM | MOLT-4 32.5 µM | Malme-3M 17 µM | NCI-H226 17.4 µM | NCI-H23 15 µM | NCI-H460 14.3 µM | NCI-H522 14.2 µM | NCI/ADR-RES 18.1 µM | OVCAR-3 16.9 µM | OVCAR-4 14.1 µM | OVCAR-5 17.3 µM | OVCAR-8 18.2 µM | PC-3 17.4 µM | RPMI-8226 28.7 µM | RXF 393 18.4 µM | SF-268 18.5 µM | SF-295 17.9 µM | SF-539 18.7 µM | SK-MEL-28 18.8 µM | SK-MEL-2 17.8 µM | SK-MEL-5 15.7 µM | SK-OV-3 17.6 µM | SN12C 18.6 µM | SNB-19 16.9 µM | SR 32.7 µM | SW-620 19.8 µM | T47D 19.7 µM | TK-10 19 µM | U-251 17.6 µM | UACC-257 18.3 µM | UO-31 15.5 µM

COc1cccc(NCC(=O)Nn2c(-c3ccccc3)nc3ccccc3c2=O)c1
inactive: 786-0 > 100 µM | A498 17.6 µM | A549 > 100 µM | ACHN > 100 µM | BT-549 > 100 µM | CCRF-CEM 82 µM | COLO 205 > 100 µM | DU-145 > 100 µM | EKVX 91.6 µM | HCC 2998 > 100 µM | HCT-116 > 100 µM | HL-60 > 100 µM | HOP-62 > 100 µM | HOP-92 49.3 µM | HT-29 > 100 µM | Hs-578T > 100 µM | IGROV-1 64.4 µM | K562 > 100 µM | KM12 > 100 µM | LOX IMVI > 100 µM | M14 > 100 µM | MCF7 52.2 µM | MDA-MB-231 > 100 µM | MDA-MB-435 > 100 µM | MOLT-4 > 100 µM | Malme-3M > 100 µM | NCI-H226 > 100 µM | NCI-H23 > 100 µM | NCI-H460 > 100 µM | NCI-H522 > 100 µM | NCI/ADR-RES > 100 µM | OVCAR-3 > 100 µM | OVCAR-4 > 100 µM | OVCAR-5 > 100 µM | OVCAR-8 > 100 µM | PC-3 > 100 µM | RPMI-8226 > 100 µM | RXF 393 > 100 µM | SF-268 > 100 µM | SF-295 > 100 µM | SF-539 > 100 µM | SK-MEL-28 > 100 µM | SK-MEL-5 57.7 µM | SK-OV-3 > 100 µM | SN12C > 100 µM | SNB-19 > 100 µM | SNB-75 > 100 µM | SR > 100 µM | SW-620 > 100 µM | T47D > 100 µM | TK-10 > 100 µM | U-251 > 100 µM | UACC-257 > 100 µM | UACC-62 63.4 µM | UO-31 > 100 µM
> 100 µM: HCT-15
